One test deals with CT-26 xenografts. The test is described as follows: CT-26 mouse colon xenograft model. Type of test: in vivo. Conditions: CT-26 xenograft, female Balb/c mice; 15, 25, 50 mpk QD, 5 mpk IV BIW, 5 mpk IP QD. The procedure: Compound 129b was also tested in CT-26 mouse colon xenograft models. For CT-26 xenografts 5×10^5 CT-26 cells in 100 μL was injected in the right flank of six-to-eight-week-old female Balb/c mice. When the tumor volume reached mean of ˜100 mm^3, mice were randomized in a group of 5 and treatment was initiated vehicle, 15 mpk QD, 25 mpk QD, 50 mpk QD, 5 mpk IV BIW, and 5 mpk IP QD of Compound 129b.

The subject of test [1] is JIMT-1 human breast cancer cell line. Put plainly: Cell viability assay (SRB) in JIMT-1. Particulars: 72 hours after treatment, read-out: JIMT1 IC50. Type of test: cell-based. In short, it runs like this: (§1)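 JIMT-1 (3×10^3 cells/well) and HCT-116 (4×10^3 cells/well) cells were seeded and treated with inhibitors at several concentrations 24 h later. Viability was read by sulforhodamine B staining 72 h after treatment. JIMT-1 was grown in DMEM and HCT-116 in McCoy's 5A, both with FBS.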

In a further test the test system is RKO xenograft. The test is described as follows: RKO colon cancer xenograft tumor growth in nude mice. Type of test: in vivo, mouse. Particulars: female athymic nude mice. How it is done:
Six-to-eight-week-old female athymic nude mice were housed with a temperature-controlled and 12-hour light/12-hour dark cycle environment. For in vivo colon cancer tumor growth, 1×10^6 RKO cells were prepared in 100 μL of DMEM and injected into right flank of female nude mice. Mouse weight and tumor volume were measured twice a week. Tumor volumes were calculated as length×width^2×0.5. Once the tumor volume had reached about 100 mm^3, xenografts were randomized into groups (5 mice per group). Animals were treated with vehicle and Compound 129b. The formulation for vehicle and Compound 129b was 50% PEG400 and 20% Cremophor RH40 final (50% of 40% Cremophor) in Acetate buffer, PH=4. The mouse were sacrificed after 4 weeks or if the tumors reached a predefined tumor volume cut-off of 2500 mm^3. […] For instance, at the highest does, a TGI of at least 80% was observed (FIG. 1). PGP-71

For test [2], the system named is HCT-116 human colon carcinoma cell line. The test is described as follows: Cell viability assay (SRB) in HCT-116. Conditions: 72 hours after treatment, read-out: HCT116 IC50. Type of test: cell-based. The essentials:
as §1

What is called IC50 is the midpoint of a concentration-inhibition curve.

In the case of `COc1ccc(-c2cc(Nc3ccnc(N4C[C@@H](C)O[C@@H](C)C4)n3)[nH]n2)c(F)c1` [Compound 129b, 2-((2R,6S)-2,6-dimethylmorpholino)-N-(3-(2-fluoro-4-methoxyphenyl)-1H-pyrazol-5-yl)pyrimidin-4-amine], in the test with CT-26 xenografts, the “tumor growth inhibition or regression (in words)” value is “Strong and statistically significant tumor growth inhibition or regression”. Moreover, the figures for the IC50 in test [1] and in test [2] were 3 nM and 34 nM, respectively. Further, the “tumor growth inhibition (in words)” value with RKO xenograft (100 mg/kg PO QD/BID/TID) was “strong tumor growth inhibition”. Further, in the test on RKO xenograft (highest dose (100 mg/kg PO TID, 28 days)), the TGI result is reported as “at least 80%”.

As to `CC1COCC(C)N1c1ncc(F)c(Nc2cc(-c3ccc(OC(F)F)cc3)n[nH]2)n1` (stereo not shown) [Compound 286, N-(3-(4-(difluoromethoxy)phenyl)-1H-pyrazol-5-yl)-2-(3,5-dimethylmorpholino)-5-fluoropyrimidin-4-amine], the 50% inhibitory concentration (IC50) in test [1] is 1680 nM; in test [2] it was 5220 nM.

In the case of `C[C@@H]1CN(c2ncc(F)c(Nc3cc(-c4ccc(OC(F)F)cc4)n[nH]3)n2)C[C@H](C)O1` [Compound 287, N-(3-(4-(difluoromethoxy)phenyl)-1H-pyrazol-5-yl)-2-((2R,6S)-2,6-dimethylmorpholino)-5-fluoropyrimidin-4-amine], the IC50 in test [1] was found to be 49 nM; in test [2], 91 nM.

In the case of `C[C@@H]1CN(c2ncc(Cl)c(Nc3cc(-c4ccc(OC(F)F)cc4)n[nH]3)n2)C[C@H](C)O1` [Compound 288, 5-chloro-N-(3-(4-(difluoromethoxy)phenyl)-1H-pyrazol-5-yl)-2-((2R,6S)-2,6-dimethylmorpholino)pyrimidin-4-amine], the figures for the half-maximal inhibitory concentration (IC50) in test [1] and in test [2] were 443 nM and 456 nM, respectively.

In the case of `Fc1cnc(N2CCC2)nc1Nc1cc(-c2ccc(OC(F)F)cc2)n[nH]1` [Compound 289, 2-(azetidin-1-yl)-N-(3-(4-(difluoromethoxy)phenyl)-1H-pyrazol-5-yl)-5-fluoropyrimidin-4-amine], the results for the IC50 in test [1] and in test [2] were 180 nM and 371 nM, respectively.

As to `CC1CCCN1c1ncc(F)c(Nc2cc(-c3ccc(OC(F)F)cc3)n[nH]2)n1` (stereo not shown) [Compound 290, N-(3-(4-(difluoromethoxy)phenyl)-1H-pyrazol-5-yl)-5-fluoro-2-(2-methylpyrrolidin-1-yl)pyrimidin-4-amine], the IC50 in test [1] turned out to be 278 nM; in test [2], 337 nM.

As for `CC1COCCN1c1ncc(F)c(Nc2cc(-c3ccc(OC(F)F)cc3)n[nH]2)n1` (stereo not shown) [Compound 291, N-(3-(4-(difluoromethoxy)phenyl)-1H-pyrazol-5-yl)-5-fluoro-2-(3-methylmorpholino)pyrimidin-4-amine], the IC50 in test [1] was 777 nM; in test [2], 1710 nM.

On to `C[C@@H]1CN(c2ncc(F)c(Nc3cc(-c4ccc(OC(F)F)cc4)n[nH]3)n2)C[C@@H](C)O1` [Compound 292, N-(3-(4-(difluoromethoxy)phenyl)-1H-pyrazol-5-yl)-2-((2R,6R)-2,6-dimethylmorpholino)-5-fluoropyrimidin-4-amine], for which the IC50 in test [1] stood at 659 nM; in test [2] it was 996 nM.

As for `C[C@H]1CN(c2ncc(F)c(Nc3cc(-c4ccc(OC(F)F)cc4)n[nH]3)n2)C[C@H](C)O1` [Compound 293, N-(3-(4-(difluoromethoxy)phenyl)-1H-pyrazol-5-yl)-2-((2S,6S)-2,6-dimethylmorpholino)-5-fluoropyrimidin-4-amine], the IC50 came out at 255 nM in test [1] and 332 nM in test [2].

For the compound `C[C@H]1COCCN1c1ncc(F)c(Nc2cc(-c3ccc(OC(F)F)cc3)n[nH]2)n1` [Compound 294, (S)-N-(3-(4-(difluoromethoxy)phenyl)-1H-pyrazol-5-yl)-5-fluoro-2-(3-methylmorpholino)pyrimidin-4-amine], the IC50 is 636 nM in test [1] and 1140 nM in test [2].

Turning to `C[C@@H]1COCCN1c1ncc(F)c(Nc2cc(-c3ccc(OC(F)F)cc3)n[nH]2)n1` [Compound 295, (R)-N-(3-(4-(difluoromethoxy)phenyl)-1H-pyrazol-5-yl)-5-fluoro-2-(3-methylmorpholino)pyrimidin-4-amine], the figures for the IC50 in test [1] and in test [2] were not below 10000 nM and 7510 nM, respectively.

Regarding `C[C@@H]1CN(c2ncnc(Nc3cc(-c4ccc(OC(F)F)cc4)n[nH]3)n2)C[C@H](C)O1` [Compound 310, N-(3-(4-(difluoromethoxy)phenyl)-1H-pyrazol-5-yl)-4-((2R,6S)-2,6-dimethylmorpholino)-1,3,5-triazin-2-amine], the IC50 in test [1] turned out to be 2350 nM; in test [2], 2960 nM.

`COc1ccc(-c2cc(Nc3ccnc(C4=CCOCC4)n3)[nH]n2)c(F)c1` [Compound 317, 2-(3,6-dihydro-2H-pyran-4-yl)-N-(3-(2-fluoro-4-methoxyphenyl)-1H-pyrazol-5-yl)pyrimidin-4-amine]: the IC50 in test [1] stood at 12 nM; in test [2], 24 nM.

In the case of `COc1ccc(-c2cc(Nc3ccnc(C4CCOCC4)n3)[nH]n2)c(F)c1` [Compound 318, N-(3-(2-fluoro-4-methoxyphenyl)-1H-pyrazol-5-yl)-2-(tetrahydro-2H-pyran-4-yl)pyrimidin-4-amine], the results for the IC50 in test [1] and in test [2] were 319 nM and 293 nM, respectively.
